# Structures can show the parent of a compound that is named as a salt.
# System: spontaneous climbing behaviour of mice
# Test: Spontaneous climbing behaviour of mice (method of Martres et al.)
# Assay type: in vivo
# Settings: 0.2mg/kg subcutaneous, climbs counted over a 10 minute period commencing 3 minutes after administration, percentage change from control group
# Protocol: It is believed that this inhibitory effect is mediated by stimulation of presynaptic dopaminergic autoreceptors, i.e. receptors whose stimulation results in inhibition of dopamine synthesis and electrical activity of dopamine neurones. Spontaneous climbing behaviour was assessed by the method of M.P. Martres et al., Brain Research, 1977, 136, 319. This involves the monitoring of the frequency of climbing behaviour of mice in inverted food hoppers over a 10 minute period commencing 3 minutes after subcutaneous administration of compound. A climb is defined as the mouse having all four feet off the ground. Experiments are carried out with a minimum of 5 groups of 10 mice, one group acting as control.
SMILES,"% Inhibition of Spontaneous Climbing at 0.2mg/kg (hydrobromide, 0.2 mg/kg) [%]",% Inhibition of Spontaneous Climbing at 0.2mg/kg [%]
"Oc1cccc(C2CCC3CCC2N3Cc2ccccc2)c1 (racemic) [Compound 13, (±)-(2-Exo)-8-Benzyl-2-(3'-hydroxyphenyl)-8-azabicyclo(3.2.1)octane hydrobromide]",24,–
"Oc1cccc(C2CCC3CCC2N3Cc2ccccc2)c1 (racemic) [Compound 14, (±)-(2-endo)-8-Benzyl-2-(3'-hydroxyphenyl)-8-azabicyclo(3.2.1)octane hydrobromide]",38,–
"Oc1cccc(C2CCC3CCC2N3CCc2ccccc2)c1 (racemic) [Compound 20, 2-endo-8-phenethyl-2-(3'-hydroxyphenyl)-8-azabicyclo[3.2.1] octane]",–,12
"CCCN1C2CCC(c3cccc(O)c3)C1CC2 (racemic) [Compound 16, 2-endo-8-n-propyl-2-(3'-hydroxyphenyl)-8-azabicyclo[3.2.7]octane]",–,49

# Source: patent publication EP0076089A2, “Azabicycloalkane derivatives, process for their preparation, and a pharmaceutical composition containing them” (BEECHAM GROUP PLC, priority 1981, dated 1983)
